# ChEMBL document CHEMBL1140456, “Synthesis and screening of 3-substituted thioxanthen-9-one-10,10-dioxides” (Bioorg Med Chem Lett, 2007)
# Target: Breast cancer type 1 susceptibility protein (Homo sapiens, UniProt P38398)
# Experiment: Inhibition of BRCA1 assessed as BRCT-BACH1 interaction
# Sequence of Breast cancer type 1 susceptibility protein (P38398 whole entry): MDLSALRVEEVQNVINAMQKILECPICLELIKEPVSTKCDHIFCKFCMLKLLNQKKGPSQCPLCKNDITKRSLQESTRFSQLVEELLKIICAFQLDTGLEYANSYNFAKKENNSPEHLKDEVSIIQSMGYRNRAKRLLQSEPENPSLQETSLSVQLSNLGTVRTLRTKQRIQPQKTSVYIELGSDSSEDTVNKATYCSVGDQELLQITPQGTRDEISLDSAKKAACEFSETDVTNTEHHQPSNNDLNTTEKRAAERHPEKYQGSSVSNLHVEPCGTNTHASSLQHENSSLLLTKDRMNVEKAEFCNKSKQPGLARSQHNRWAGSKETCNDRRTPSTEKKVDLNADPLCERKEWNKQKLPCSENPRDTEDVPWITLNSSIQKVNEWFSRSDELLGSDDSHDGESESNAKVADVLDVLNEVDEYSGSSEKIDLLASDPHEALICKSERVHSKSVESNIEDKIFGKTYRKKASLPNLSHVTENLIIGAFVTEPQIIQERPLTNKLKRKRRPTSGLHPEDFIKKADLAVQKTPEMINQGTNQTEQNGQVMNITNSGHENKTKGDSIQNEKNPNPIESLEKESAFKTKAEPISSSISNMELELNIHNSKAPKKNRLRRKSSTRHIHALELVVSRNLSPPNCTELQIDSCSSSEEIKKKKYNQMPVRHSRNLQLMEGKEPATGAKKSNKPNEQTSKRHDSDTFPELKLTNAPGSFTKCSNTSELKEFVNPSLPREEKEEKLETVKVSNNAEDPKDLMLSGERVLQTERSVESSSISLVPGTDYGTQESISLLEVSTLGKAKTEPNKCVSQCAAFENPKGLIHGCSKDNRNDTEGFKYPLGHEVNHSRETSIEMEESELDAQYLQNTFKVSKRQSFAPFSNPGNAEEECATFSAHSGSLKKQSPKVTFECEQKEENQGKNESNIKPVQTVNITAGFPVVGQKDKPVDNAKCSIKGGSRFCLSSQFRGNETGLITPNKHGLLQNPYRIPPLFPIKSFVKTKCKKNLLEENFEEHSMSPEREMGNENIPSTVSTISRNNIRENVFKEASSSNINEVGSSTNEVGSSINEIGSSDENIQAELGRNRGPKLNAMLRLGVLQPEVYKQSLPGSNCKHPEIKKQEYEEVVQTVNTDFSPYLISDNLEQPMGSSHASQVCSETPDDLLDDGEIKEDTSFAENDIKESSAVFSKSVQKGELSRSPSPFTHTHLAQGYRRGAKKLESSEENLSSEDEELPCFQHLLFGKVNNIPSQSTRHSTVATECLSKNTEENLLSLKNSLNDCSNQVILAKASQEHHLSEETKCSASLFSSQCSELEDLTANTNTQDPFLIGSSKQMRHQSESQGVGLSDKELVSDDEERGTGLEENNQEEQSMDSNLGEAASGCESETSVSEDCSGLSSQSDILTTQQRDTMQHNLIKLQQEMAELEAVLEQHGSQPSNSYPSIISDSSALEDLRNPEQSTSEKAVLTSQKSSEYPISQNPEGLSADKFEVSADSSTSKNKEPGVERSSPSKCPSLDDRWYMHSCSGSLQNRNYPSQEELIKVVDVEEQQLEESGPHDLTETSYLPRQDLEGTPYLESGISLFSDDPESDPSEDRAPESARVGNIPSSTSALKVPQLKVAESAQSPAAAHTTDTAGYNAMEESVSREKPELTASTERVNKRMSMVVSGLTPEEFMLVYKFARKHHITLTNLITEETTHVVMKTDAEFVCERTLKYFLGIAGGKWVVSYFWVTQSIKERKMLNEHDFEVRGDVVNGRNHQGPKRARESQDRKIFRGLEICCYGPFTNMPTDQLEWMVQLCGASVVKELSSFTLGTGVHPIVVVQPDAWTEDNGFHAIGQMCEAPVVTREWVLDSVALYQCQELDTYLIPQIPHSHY
row,Ki [µM],SMILES
1,30,NC(=O)C1CCN(c2ccc3c(c2)S(=O)(=O)c2ccccc2C3=O)CC1
2,39,CC1CCN(c2ccc3c(c2)S(=O)(=O)c2ccccc2C3=O)CC1
3,38,O=C1c2ccccc2S(=O)(=O)c2cc(N3CCC(Cc4ccccc4)CC3)ccc21
